Measured values from patent publication US20220117884A1, “Methods and Compostitions for Enhancing the Viability of Microneedle Pores” (priority 2007, published 2022).

How the values were obtained:
[1] = hairless guinea pigs, after microneedle exposure and occlusion; cited from earlier work
[2] = Transepidermal water loss (TEWL) study of microneedle pore viability with COX inhibitor gels under occlusion; assay type: in vivo; conditions: gel re-applied daily under occlusion; 5 day study, trial 2
Method: Two trials were completed with subject 1 and one trial was completed with subject 2. During the initial trial, subject one was tested for 7 days with only Solaraze® Gel. 100 microneedle arrays were placed on each test site and covered with gel. The gel was then protected with an occlusive backing membrane (3M™ Scotchpak™ 9733 2.05 mil polyester film, St. Paul, Minn.) and secured to the test site with Bioclusive* tape (Johnson and Johnson Medical Ltd, Gargrave, Skipton, UK). Along with gel test sites, control sites with and without microneedle insertions were tested minus gel. The control sites were treated in the same manner with gel minus the 100 microneedle insertions. The initial trial lasted for 7 days followed by a 5 day study.
In trial 2, the same procedure was performed on a different test and control sites using each of the following gel formulations: placebo, Solaraze® Gel, 3% diclofenac, 3% celecoxib, 10% ibuprofen, 10% ketoprofen, and controls with and without microneedle treatment. Each day, the protective covering was removed, areas were blotted 3 times with a Kimwipe® (Kimberly-Clark, Roswell, Ga.) to remove gel and trapped moisture and TEWL readings were made with an RG1 Evaporimeter (cyberDERM, Broomall, Pa.). The treated areas had the formula re-applied and immediately covered to prevent closure of the microneedle created pores.

[3] = used in conjunction with microneedles; cited from earlier work

Cl.Oc1ccc2c3c1O[C@H]1[C@H](O)CC[C@@]4(O)[C@@H](C2)N(CC2CC2)CC[C@]314 [6(3-naltrexol hydrochloride]
duration of significant enhancement in microneedle pore viability compared to untreated skin [1]: 48 h

O=C(O)Cc1ccccc1Nc1c(Cl)cccc1Cl [diclofenac]
enhancement in pore viability (TEWL), microneedle-treated areas versus control areas [2]: enhanced viability of microneedle pores

O=C1CC[C@@]2(O)[C@H]3Cc4ccc(O)c5c4[C@@]2(CCN3CC2CC2)[C@H]1O5 [naltrexone]
time for which steady state naltrexone concentrations remained [3]: 48 h
time until steady state naltrexone concentrations were achieved [3]: two
